From patent US9938273B2 (Plexxikon Inc., priority 2015, dated 2018)

Molecular target: T1, FLT3-ITD (Homo sapiens, UniProt P36888)
T1 sequence (P36888 1-993): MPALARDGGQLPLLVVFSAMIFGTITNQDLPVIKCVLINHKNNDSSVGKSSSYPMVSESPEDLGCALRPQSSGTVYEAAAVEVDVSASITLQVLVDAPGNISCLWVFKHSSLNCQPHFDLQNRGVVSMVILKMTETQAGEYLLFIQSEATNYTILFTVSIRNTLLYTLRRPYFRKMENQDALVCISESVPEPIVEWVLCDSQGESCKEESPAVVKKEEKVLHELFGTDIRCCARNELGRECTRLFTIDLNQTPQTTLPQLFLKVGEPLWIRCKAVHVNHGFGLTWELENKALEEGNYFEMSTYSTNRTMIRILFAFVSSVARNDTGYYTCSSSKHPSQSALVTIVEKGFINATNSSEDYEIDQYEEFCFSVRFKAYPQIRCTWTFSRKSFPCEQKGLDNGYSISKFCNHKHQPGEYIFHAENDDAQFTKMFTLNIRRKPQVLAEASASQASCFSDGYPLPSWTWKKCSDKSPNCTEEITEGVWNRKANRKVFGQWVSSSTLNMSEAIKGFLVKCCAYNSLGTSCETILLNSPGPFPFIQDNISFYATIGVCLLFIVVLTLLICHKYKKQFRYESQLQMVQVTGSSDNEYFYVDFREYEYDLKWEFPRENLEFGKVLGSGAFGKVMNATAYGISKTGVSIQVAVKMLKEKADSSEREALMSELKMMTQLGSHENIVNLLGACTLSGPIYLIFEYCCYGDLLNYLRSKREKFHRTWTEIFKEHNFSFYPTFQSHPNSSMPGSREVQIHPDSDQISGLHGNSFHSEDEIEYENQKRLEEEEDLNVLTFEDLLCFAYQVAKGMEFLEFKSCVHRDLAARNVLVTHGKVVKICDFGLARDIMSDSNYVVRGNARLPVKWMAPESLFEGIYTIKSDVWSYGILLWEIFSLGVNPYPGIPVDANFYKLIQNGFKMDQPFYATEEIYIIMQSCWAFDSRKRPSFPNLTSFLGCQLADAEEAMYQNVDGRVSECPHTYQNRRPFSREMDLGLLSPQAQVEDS
Assay: AlphaScreen kinase assay with recombinant enzyme, FLT3-ITD
Type: biochemical
Conditions: 8pt; read-out: FLT3_ITD 8pt: IC50
Outline: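 Tyrosine phosphorylation of biotin-poly(Glu4-Tyr) substrate by recombinant enzyme is detected with PY20 acceptor and streptavidin donor beads after room-temperature incubations of 20 and 60 min. IC50 values were derived at a final 10 μM (FLT3-D835Y, FLT3-ITD) or 100 μM (c-KIT).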

IC50	SMILES
0.0001 to 10 µM	NC1CCN(C(=O)c2n[nH]c3ccc(-c4cnc5[nH]c(C6=CCN(C(=O)C7CC7)C6)cc5c4)cc23)CC1 [Compound P-0074, (4-amino-1-piperidyl)-[5-[2-[1-(cyclopropanecarbonyl)-2,5-dihydropyrrol-3-yl]-1H-pyrrolo[2,3-b]pyridin-5-yl]-1H-indazol-3-yl]methanone]
0.0001 to 10 µM	CN(C(=O)c1cccc(-c2cnc3[nH]c(-c4ccccc4)cc3c2)n1)C1CCNC1 (stereo not drawn) [Compound P-0076, N-methyl-6-(2-phenyl-1H-pyrrolo[2,3-b]pyridin-5-yl)-N-pyrrolidin-3-yl-pyridine-2-carboxamide]
0.0001 to 10 µM	CNC1CCCN(C(=O)c2cccc(-c3cnc4[nH]c(-c5ccccc5)cc4c3)n2)C1 (stereo not drawn) [Compound P-0080, [3-(methylamino)-1-piperidyl]-[6-(2-phenyl-1H-pyrrolo[2,3-b]pyridin-5-yl)-2-pyridyl]methanone]
0.0001 to 10 µM	CC1(N)CCN(C(=O)c2cccc(-c3cnc4[nH]c(-c5ccccc5)cc4c3)n2)CC1 [Compound P-0081, (4-amino-4-methyl-1-piperidyl)-[6-(2-phenyl-1H-pyrrolo[2,3-b]pyridin-5-yl)-2-pyridyl]methanone]
0.0001 to 10 µM	CC1(N)CCCN(C(=O)c2cccc(-c3cnc4[nH]c(-c5ccccc5)cc4c3)n2)C1 (stereo not drawn) [Compound P-0082, (3-amino-3-methyl-1-piperidyl)-[6-(2-phenyl-1H-pyrrolo[2,3-b]pyridin-5-yl)-2-pyridyl]methanone]
0.0001 to 10 µM	N[C@@H]1CN(C(=O)c2cccc(-c3cnc4[nH]c(-c5ccccc5)cc4c3)n2)CC12CC2 [Compound P-0083, [(7S)-7-amino-5-azaspiro[2.4]heptan-5-yl]-[6-(2-phenyl-1H-pyrrolo[2,3-b]pyridin-5-yl)-2-pyridyl]methanone]
0.0001 to 10 µM	CNC1CCN(Cc2cccc(-c3cnc4[nH]c(-c5ccccc5)cc4c3)n2)C1 (stereo not drawn) [Compound P-0087, N-methyl-1-[[6-(2-phenyl-1H-pyrrolo[2,3-b]pyridin-5-yl)-2-pyridyl]methyl]pyrrolidin-3-amine]
0.0001 to 10 µM	O=C(c1cccc(-c2cnc3[nH]c(-c4ccccc4)cc3c2)n1)N1CCC(F)(F)CC1 [Compound P-0089, (4,4-difluoro-1-piperidyl)-[6-(2-phenyl-1H-pyrrolo[2,3-b]pyridin-5-yl)-2-pyridyl]methanone]
0.0001 to 10 µM	COC(=O)C1(C)CCN(C(=O)c2cccc(-c3cnc4[nH]c(-c5ccccc5)cc4c3)n2)CC1 [Compound P-0092, methyl 4-methyl-1-[6-(2-phenyl-1H-pyrrolo[2,3-b]pyridin-5-yl)pyridine-2-carbonyl]piperidine-4-carboxylate]
